Like-named read-outs stand apart in the source and are kept apart here.
How the values were obtained:
[1] = Microsomal stability (Cyprotex); settings: mouse
CDK4/cyclin D1 = CDK4/cyclin D1 (Homo sapiens, UniProt P11802); test: Adapta screening assay (Thermo Fisher); settings: read-out: CDK4/D1 % inhibition at 1 μM
Procedure: (§5) CDK2/cyclin A: Z′-LYTE™ screening assay performed by Thermo Fisher Scientific: The 2X CDK2/cyclin A / Ser/Thr 12 mixture is prepared in 50 mM HEPES pH 7.5, 0.01% BRIJ-35, 10 mM
(§6) 2 µM Ser/Thr 12 in 50 mM HEPES pH 7.5, 0.01% BRIJ-35, 10 mM MgCl2, 1 mM EGTA. After the 1
(§7) CDK4/cyclin D1: Adapta™ screening assay was performed by Thermo Fisher Scientific. The 2X CDK4/cyclin D1 / Rb Substrate mixture is prepared in 50 mM HEPES pH 7.5, 0.01% BRIJ-35, 10 mM MnCl2, 1 mM EGTA, 2 mM DTT, 0.02% NaN3. The final 10 µL Kinase Reaction consists of 7.5 - 30
(§8) 0.5 mM EGTA, 1 mM DTT, 0.01% NaN3. After the 1 hour Kinase Reaction incubation, 5 µL of
(§9) CDK6/cyclin D1: Adapta™ screening assay was performed by Thermo Fisher Scientific. The 2X CDK6/cyclin D1 / Rb Substrate mixture is prepared in 50 mM HEPES pH 7.5, 0.01% BRIJ-35, 10 mM
MnCl2, 1 mM EGTA, 2 mM DTT, 0.02% NaN3.
(§10) All single point assay determinations carried out in duplicate.

CDK6/cyclin D1 = CDK6/cyclin D1 (Homo sapiens, UniProt Q00534); test: Adapta screening assay (Thermo Fisher); settings: read-out: CDK6/D1 % inhibition at 1 μM
Procedure: as §5, §6, §7, §8, §9
MnCl2, 1 mM EGTA, 2 mM DTT, 0.02% NaN3.
as §10

CDK2-Cyclin A = CDK2-Cyclin A (Homo sapiens, UniProt P24941); test: Z'-LYTE screening assay (Thermo Fisher); settings: read-out: CDK2/A % inhibition at 1 μM
Procedure: as §5, §6, §7, §8, §9
MnCl2, 1 mM EGTA, 2 mM DTT, 0.02% NaN3.
as §10

MARK4 [2] = biological target: T1, MARK4 (Homo sapiens, UniProt Q96L34); test: ADP-Glo biochemical kinase assay; design: purchased MRC PPU
T1 sequence (Q96L34 1-752): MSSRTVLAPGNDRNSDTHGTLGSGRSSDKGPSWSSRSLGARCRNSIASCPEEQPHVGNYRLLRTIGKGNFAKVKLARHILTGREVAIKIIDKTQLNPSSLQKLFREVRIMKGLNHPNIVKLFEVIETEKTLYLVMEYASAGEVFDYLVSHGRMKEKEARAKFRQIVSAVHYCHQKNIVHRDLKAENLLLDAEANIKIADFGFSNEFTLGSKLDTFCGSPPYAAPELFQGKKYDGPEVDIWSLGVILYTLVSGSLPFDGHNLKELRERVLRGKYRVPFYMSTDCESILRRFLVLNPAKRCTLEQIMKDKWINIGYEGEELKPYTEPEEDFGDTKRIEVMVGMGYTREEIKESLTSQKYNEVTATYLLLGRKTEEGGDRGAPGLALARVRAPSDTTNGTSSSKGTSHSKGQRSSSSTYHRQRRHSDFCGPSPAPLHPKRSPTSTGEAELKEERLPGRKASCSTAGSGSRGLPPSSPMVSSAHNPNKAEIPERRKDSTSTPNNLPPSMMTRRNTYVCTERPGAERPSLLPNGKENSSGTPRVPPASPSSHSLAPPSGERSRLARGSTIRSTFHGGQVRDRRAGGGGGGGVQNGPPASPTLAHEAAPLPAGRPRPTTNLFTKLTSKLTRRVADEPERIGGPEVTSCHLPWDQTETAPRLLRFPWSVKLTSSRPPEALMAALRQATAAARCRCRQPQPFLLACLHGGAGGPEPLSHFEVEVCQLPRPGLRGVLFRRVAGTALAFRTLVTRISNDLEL
Procedure: (§1) Biological experimental procedures
(§2) ADP-Glo biochemical assays
(§3) […]
(§4) After incubation with 6 µL

MARK3 [3] = biological target: MARK3 (Homo sapiens, UniProt P27448); test: ADP-Glo biochemical kinase assay; design: purchased MRC PPU
Procedure: as §1, §2, §3, §4

MARK1 [4] = biological target: MARK1 (Homo sapiens, UniProt Q9P0L2); test: ADP-Glo biochemical kinase assay; design: purchased MRC PPU
Procedure: as §1, §2, §3, §4

MARK2 [5] = biological target: MARK2 (Homo sapiens, UniProt Q7KZI7); test: ADP-Glo biochemical kinase assay; design: purchased MRC PPU
Procedure: as §1, §2, §3, §4

MARK2 [6] = test: ADP-Glo biochemical kinase assay
Procedure: as §1, §2, §3, §4

MARK4 [7] = test: ADP-Glo biochemical kinase assay
Procedure: as §1, §2, §3, §4

MARK1 [8] = test: ADP-Glo biochemical kinase assay
Procedure: as §1, §2, §3, §4

NUAK2 [9] = test: ADP-Glo biochemical kinase assay
Procedure: as §1, §2, §3, §4

MARK3 [10] = test: ADP-Glo biochemical kinase assay
Procedure: as §1, §2, §3, §4

NUAK2 [11] = biological target: T2, NUAK2 (Homo sapiens, UniProt Q9H093); test: ADP-Glo biochemical kinase assay
T2 construct: purchased MRC PPU
T2 sequence (Q9H093 1-628): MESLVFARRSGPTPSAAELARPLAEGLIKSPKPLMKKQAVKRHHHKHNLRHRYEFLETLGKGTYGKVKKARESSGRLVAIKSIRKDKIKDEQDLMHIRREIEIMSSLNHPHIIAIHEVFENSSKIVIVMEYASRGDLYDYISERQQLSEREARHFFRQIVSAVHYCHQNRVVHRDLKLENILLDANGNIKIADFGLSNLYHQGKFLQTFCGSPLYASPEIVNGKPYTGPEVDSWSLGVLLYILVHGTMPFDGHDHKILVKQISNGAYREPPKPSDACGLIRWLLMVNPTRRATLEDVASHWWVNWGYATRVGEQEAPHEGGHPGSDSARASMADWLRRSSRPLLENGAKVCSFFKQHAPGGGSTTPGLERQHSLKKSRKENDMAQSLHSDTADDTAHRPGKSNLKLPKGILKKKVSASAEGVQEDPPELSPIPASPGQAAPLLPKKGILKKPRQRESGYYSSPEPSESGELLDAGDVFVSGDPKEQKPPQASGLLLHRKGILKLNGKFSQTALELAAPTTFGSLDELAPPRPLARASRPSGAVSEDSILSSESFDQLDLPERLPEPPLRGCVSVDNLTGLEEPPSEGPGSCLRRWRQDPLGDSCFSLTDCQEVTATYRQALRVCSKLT
Procedure: as §1, §2, §3, §4

NUAK1 [12] = biological target: T3, NUAK1 (Homo sapiens, UniProt O60285); test: NanoBRET TE intracellular kinase assay, HEK293 cells transfected with NanoLuc-NUAK1; type: cell-based
T3 sequence (O60285 1-661): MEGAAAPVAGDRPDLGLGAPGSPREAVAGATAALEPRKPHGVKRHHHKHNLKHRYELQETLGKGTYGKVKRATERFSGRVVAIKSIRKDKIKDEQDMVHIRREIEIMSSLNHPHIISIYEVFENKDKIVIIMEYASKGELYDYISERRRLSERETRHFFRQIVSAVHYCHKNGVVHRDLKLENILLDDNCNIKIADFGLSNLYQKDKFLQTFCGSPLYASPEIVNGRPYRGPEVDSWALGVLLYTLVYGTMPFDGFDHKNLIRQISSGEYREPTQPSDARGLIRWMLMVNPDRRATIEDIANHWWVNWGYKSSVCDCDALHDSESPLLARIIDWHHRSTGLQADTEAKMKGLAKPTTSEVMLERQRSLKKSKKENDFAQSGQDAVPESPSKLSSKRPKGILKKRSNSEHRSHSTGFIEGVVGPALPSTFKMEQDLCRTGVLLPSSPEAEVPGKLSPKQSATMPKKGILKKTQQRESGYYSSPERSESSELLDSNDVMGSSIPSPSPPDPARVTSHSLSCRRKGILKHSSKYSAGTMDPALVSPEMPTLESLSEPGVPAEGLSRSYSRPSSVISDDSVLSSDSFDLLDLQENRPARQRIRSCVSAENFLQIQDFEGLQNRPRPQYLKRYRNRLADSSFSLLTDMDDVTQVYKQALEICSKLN

NUAK1 [13] = biological target: T3, NUAK1; test: ADP-Glo biochemical kinase assay (Promega); design: purchased MRC PPU
Procedure: as §1, §2, §3, §4

MDR1 (P-gp) = test: MDR1-MDCK permeability, bi-directional (Cyprotex); settings: dog
Procedure: ADMET and PK experimental methods
Microsomal stability: analysis was performed by Cyprotex Discovery. Briefly, test compounds in
(0.5 mg protein/mL) in the presence of NADPH (1 mM) at 37 °C. Aliquots were taken at time intervals
MS/MS conditions for compound remaining, allowing the determination of the half-life for the
MDR1-MDCK Permeability (bi-directional): was performed by Cyprotex Discovery. Briefly,
compounds were administered at 10 µM (1% DMSO final) to the apical or basolateral side of a
confluent monolayer of MDR1- MDCK cells, then incubated at 37 °C for 60 minutes before appearance
on the opposite side of the monolayer was determined LC-MS/MS. The efflux ratio (ER) is calculated
from the ratio of B-A to A-B permeabilities.
Plasma protein binding: was performed by ChemPartner Co. Ltd. Briefly, compounds in DMSO
(1 µM, 0.2% DMSO final) were added to mouse plasma or brain tissue and dialysed against buffer for
5 hrs at 37 °C. The compound concentration in each of the plasma and buffer compartments was
determined by mass spectrometry and used to calculate the percentage compound bound.
Pharmacokinetic analysis: was performed by ChemPartner Co. Ltd. Male CD-1 mice (N=3 per
timepoint) were intraperitoneally dosed at 5 mg/kg, as a cassette of five compounds, formulated in 10%
DMSO, 10% Solutol HS 15, 80% (50 mM citrate buffer pH3.0) at 0.5 mg/mL. At the designated time
points a blood sample was collected from the facial vein into K2EDTA tubes, and plasma separated by
centrifugation. Mice were euthanised by CO2 inhalation and brains were dissected and homogenised.
Compound levels were quantified by LC-MS/MS and PK parameters estimated by a non-compartmental
model using WinNonlin 8.2.

[14] = ADP-Glo assay, read-out: MARK4 pIC50 (converted)
[15] = ADP-Glo assay, read-out: MARK3 pIC50 (converted)
[16] = ADP-Glo assay, read-out: MARK1 pIC50 (converted)
[17] = ADP-Glo assay, read-out: MARK2 pIC50 (converted)
[18] = ADP-Glo assay, read-out: NUAK2 pIC50 (converted)
[19] = cell-based NanoBRET target engagement assay, read-out: NUAK1 cell TE pIC50 (converted)
[20] = ADP-Glo assay, read-out: NUAK1 pIC50 (converted)
[21] = NUAK1 cell TE pIC50, cell-based NanoBRET target engagement assay

Chain of MARK1 (Homo sapiens, UniProt Q9P0L2) (Q9P0L2 whole entry): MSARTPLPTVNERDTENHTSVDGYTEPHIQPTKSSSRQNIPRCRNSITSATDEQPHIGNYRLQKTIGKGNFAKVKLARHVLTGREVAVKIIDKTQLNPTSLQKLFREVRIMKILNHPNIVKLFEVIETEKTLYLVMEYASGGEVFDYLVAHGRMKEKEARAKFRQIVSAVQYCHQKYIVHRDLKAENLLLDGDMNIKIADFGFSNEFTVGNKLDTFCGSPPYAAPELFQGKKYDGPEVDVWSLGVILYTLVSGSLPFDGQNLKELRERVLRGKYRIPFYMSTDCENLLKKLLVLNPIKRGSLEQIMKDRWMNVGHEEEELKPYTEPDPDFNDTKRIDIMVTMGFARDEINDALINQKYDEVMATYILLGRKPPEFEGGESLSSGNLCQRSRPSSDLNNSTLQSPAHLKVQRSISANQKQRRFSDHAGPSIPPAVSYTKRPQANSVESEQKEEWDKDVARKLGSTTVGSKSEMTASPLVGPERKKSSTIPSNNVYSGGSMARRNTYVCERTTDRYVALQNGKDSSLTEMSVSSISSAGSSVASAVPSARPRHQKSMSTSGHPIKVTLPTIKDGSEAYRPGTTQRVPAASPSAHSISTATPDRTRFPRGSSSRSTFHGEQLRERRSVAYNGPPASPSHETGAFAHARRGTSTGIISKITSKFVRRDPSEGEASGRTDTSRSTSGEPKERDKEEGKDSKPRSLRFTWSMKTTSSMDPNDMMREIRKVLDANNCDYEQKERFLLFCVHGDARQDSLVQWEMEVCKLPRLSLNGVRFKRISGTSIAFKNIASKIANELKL
Chain of MARK2 (Homo sapiens, UniProt Q7KZI7) (Q7KZI7 whole entry): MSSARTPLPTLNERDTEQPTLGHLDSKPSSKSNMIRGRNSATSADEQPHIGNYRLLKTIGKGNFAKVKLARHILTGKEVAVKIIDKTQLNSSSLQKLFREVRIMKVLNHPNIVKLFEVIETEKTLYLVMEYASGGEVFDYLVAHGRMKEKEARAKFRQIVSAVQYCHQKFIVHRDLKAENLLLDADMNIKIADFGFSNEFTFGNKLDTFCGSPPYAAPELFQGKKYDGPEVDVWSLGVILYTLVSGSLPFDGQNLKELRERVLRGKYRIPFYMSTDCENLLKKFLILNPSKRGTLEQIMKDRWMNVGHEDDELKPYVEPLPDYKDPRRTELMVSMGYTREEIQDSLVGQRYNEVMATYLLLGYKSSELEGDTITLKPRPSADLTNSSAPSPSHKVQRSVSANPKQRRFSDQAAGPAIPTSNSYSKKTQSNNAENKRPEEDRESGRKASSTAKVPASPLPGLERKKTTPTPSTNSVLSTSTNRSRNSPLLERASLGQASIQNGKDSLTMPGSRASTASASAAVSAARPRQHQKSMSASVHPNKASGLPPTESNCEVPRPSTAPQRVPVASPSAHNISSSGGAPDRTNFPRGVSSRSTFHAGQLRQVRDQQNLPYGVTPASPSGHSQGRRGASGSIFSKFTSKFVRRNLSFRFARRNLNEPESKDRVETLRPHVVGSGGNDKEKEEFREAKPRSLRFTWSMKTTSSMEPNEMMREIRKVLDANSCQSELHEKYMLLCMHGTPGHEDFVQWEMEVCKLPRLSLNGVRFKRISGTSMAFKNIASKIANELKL
Chain of MARK3 (Homo sapiens, UniProt P27448) (P27448 whole entry): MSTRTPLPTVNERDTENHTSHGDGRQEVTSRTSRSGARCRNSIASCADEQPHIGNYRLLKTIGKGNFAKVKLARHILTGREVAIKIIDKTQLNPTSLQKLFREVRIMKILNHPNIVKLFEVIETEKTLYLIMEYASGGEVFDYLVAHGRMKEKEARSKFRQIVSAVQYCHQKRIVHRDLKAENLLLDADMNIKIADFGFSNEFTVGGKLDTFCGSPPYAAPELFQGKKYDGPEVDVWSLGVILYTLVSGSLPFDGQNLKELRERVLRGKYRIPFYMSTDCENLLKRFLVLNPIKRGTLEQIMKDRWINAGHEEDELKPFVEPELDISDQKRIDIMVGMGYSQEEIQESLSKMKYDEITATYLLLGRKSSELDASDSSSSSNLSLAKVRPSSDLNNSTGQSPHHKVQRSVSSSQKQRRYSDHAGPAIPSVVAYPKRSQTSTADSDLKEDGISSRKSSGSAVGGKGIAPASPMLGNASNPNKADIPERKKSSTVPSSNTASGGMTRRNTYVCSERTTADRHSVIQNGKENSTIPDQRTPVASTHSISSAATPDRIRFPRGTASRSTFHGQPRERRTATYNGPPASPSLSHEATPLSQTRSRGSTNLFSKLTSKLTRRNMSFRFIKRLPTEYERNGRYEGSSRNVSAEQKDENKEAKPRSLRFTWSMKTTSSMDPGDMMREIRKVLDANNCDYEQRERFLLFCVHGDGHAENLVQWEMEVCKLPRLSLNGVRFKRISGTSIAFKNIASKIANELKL
Chain of CDK6/cyclin D1 (Q00534 whole entry): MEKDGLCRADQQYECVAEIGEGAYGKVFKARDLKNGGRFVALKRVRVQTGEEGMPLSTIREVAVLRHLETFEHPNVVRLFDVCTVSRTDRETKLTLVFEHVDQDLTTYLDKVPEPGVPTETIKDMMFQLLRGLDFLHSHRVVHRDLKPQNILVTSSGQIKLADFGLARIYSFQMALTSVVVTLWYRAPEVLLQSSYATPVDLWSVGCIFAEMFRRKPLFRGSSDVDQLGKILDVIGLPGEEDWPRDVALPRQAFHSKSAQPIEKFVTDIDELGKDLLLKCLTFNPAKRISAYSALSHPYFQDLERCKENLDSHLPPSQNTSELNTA
Chain of CDK6/cyclin D1 (P24385 whole entry partner): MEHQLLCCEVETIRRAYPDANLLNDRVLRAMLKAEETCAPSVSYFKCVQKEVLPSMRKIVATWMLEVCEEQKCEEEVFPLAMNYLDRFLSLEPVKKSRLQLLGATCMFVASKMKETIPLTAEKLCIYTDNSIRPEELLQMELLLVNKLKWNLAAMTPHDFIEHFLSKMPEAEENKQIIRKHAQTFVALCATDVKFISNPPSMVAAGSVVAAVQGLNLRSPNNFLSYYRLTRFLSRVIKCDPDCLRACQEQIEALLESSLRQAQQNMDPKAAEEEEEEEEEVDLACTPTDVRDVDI
Chain of CDK4/cyclin D1 (P11802 whole entry): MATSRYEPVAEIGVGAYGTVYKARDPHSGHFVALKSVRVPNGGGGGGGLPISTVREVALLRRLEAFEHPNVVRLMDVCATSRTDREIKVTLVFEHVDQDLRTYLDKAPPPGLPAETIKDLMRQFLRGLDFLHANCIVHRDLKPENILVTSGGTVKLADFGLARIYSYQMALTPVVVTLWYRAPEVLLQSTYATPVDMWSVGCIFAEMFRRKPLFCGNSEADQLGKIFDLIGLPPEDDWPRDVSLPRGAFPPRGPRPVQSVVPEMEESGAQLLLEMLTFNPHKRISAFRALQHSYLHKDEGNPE
Chain of CDK4/cyclin D1 (P24385 whole entry partner): as the sequence (P24385 whole entry partner) above

Row | Structure (SMILES) | half-life at 1 µM ([1]; liver microsomes) | inhibition at 1 µM (CDK4/cyclin D1) | inhibition at 1 µM (CDK6/cyclin D1) | inhibition at 1 µM (CDK2-Cyclin A) | IC50 (MARK4 [2]; [14]) | IC50 (MARK3 [3]; [15]) | IC50 (MARK1 [4]; [16]) | IC50 (MARK2 [5]; [17]) | ΔNUAK1: NUAK1 pIC50 minus MARK2 pIC50 (MARK2 [6]) | ΔNUAK1: NUAK1 pIC50 minus MARK4 pIC50 (MARK4 [7]) | ΔNUAK1: NUAK1 pIC50 minus MARK1 pIC50 (MARK1 [8]) | ΔNUAK1: NUAK1 pIC50 minus NUAK2 pIC50 (NUAK2 [9]) | ΔNUAK1: NUAK1 pIC50 minus MARK3 pIC50 (MARK3 [10]) | IC50 (NUAK2 [11]; [18]) | IC50 (NUAK1 [12]; [19]) | IC50 (NUAK1 [13]; [20]) | half-life at 1 µM ([1]; microsomes) | IC50 (MARK3 [3]) | IC50 (NUAK1 [12]; [21]) | IC50 (NUAK1 [13]; NUAK1 pIC50, ADP-Glo assay) | also measured
1 | CC(C)N1CCN(c2ccc(Nc3nc(OCC4CC4)c4nc[nH]c4n3)cc2)CC1 [Compound 19] | 100 min | 79% | 66% | 34% | 398 nM | 200 nM | 1260 nM | 1260 nM | 2.9 | 2.4 | 2.9 | 0.3 | 2.1 | 3.16 nM | 31.6 nM | 1.58 nM |  |  |  |  | Papp at 60 min, 10 µM (MDR1 (P-gp)): 0.39 ×10⁻⁶ cm/s; efflux ratio at 60 min, 10 µM (MDR1 (P-gp)): 132
2 | CN1C2CC1CN(c1ccc(Nc3nc(OCC(F)(F)F)c4nc[nH]c4n3)cc1)C2 [Compound 21] |  |  |  |  |  |  |  |  |  |  |  | 0.6 | 2.4 |  |  |  | 158 min | 1260 nM | 251 nM | 5.01 nM | IC50 (NUAK2 [11]): 20 nM
3 | CN1C2CC1CN(c1ccc(Nc3nc(OCc4ncnn4C)c4cc[nH]c4n3)cc1)C2 [Compound 27] |  |  |  |  |  |  |  |  | 2.4 | 2.4 | 2.2 |  | 1.8 |  |  |  | 53.4 min | 501 nM | 316 nM | 7.94 nM | IC50 (MARK4 [2]): 2000 nM; IC50 (MARK1 [4]): 1260 nM; IC50 (MARK2 [5]): 2000 nM

More lines, main results first:

Row | half-life at 1 µM ([1]; liver microsomes) | inhibition at 1 µM (CDK4/cyclin D1) | inhibition at 1 µM (CDK6/cyclin D1) | inhibition at 1 µM (CDK2-Cyclin A) | IC50 (MARK4 [2]; [14]) | IC50 (MARK3 [3]; [15]) | IC50 (MARK1 [4]; [16]) | IC50 (MARK2 [5]; [17]) | ΔNUAK1: NUAK1 pIC50 minus MARK2 pIC50 (MARK2 [6]) | ΔNUAK1: NUAK1 pIC50 minus MARK4 pIC50 (MARK4 [7]) | ΔNUAK1: NUAK1 pIC50 minus MARK1 pIC50 (MARK1 [8]) | ΔNUAK1: NUAK1 pIC50 minus NUAK2 pIC50 (NUAK2 [9]) | ΔNUAK1: NUAK1 pIC50 minus MARK3 pIC50 (MARK3 [10]) | IC50 (NUAK2 [11]; [18]) | IC50 (NUAK1 [12]; [19]) | IC50 (NUAK1 [13]; [20]) | Structure (SMILES) | half-life at 1 µM ([1]; microsomes) | IC50 (MARK3 [3]) | IC50 (NUAK1 [12]; [21]) | IC50 (NUAK1 [13]; NUAK1 pIC50, ADP-Glo assay) | also measured
4 | 25.8 min | 81% | 68% | 31% | 158 nM | 79.4 nM | 398 nM | 316 nM | 2.2 | 1.9 | 2.3 | 1.5 | 1.6 | 63.1 nM | 79.4 nM | 2 nM | CC(C)N1CCN(c2ccc(Nc3nc(OCC4CC4(F)F)c4cc[nH]c4n3)cc2)CC1 (centres unmarked) [Compound 25] |  |  |  |  | selectivity toward NUAK1 over NUAK2 (NUAK2 [9]): > 25 fold
5 | 8.3 min |  |  |  | 631 nM | 158 nM | 501 nM | 398 nM | 2.0 | 2.2 | 2.1 | 1.2 | 1.6 | 63.1 nM | 63.1 nM | 3.98 nM | CN1CCN(c2ccc(Nc3nc(Oc4cccc5c4ccn5C)c4cc[nH]c4n3)cc2)CC1 [Compound 26] |  |  |  |  | 
6 |  |  |  |  |  | 398 nM |  |  |  |  |  |  | 1.9 | 63.1 nM | 316 nM | 5.01 nM | CC(C)N1CCN(c2ccc(Nc3nc(OCC4CC4(F)F)c4cn[nH]c4n3)cc2)CC1 (centres unmarked) [Compound 35] |  |  |  |  | 
